Assay results as given in patent US12233070B2, “Methods for treating benzodiazepine misuse/use disorder” (University of M[…] Center, priority 2020, dated 2025).

How the values were obtained:
[1] = molecular target: α3 subunit-containing GABAA receptors (Homo sapiens, UniProt P18507+P34903); design: key: act as partial positive modulators for particular subtype combinations; none: zero efficacy (i.e., antagonism) at other subtypes; details: cited from earlier work
[2] = molecular target: α5 subunit-containing GABAA receptors (Homo sapiens, UniProt P18507+P31644); design: key to Subtype α5: act as partial positive modulators for particular subtype combinations; none: zero efficacy (i.e., antagonism) at other subtypes; details: cited from earlier work
α5 subunit-containing GABAA receptors, sequence (P31644 32-462): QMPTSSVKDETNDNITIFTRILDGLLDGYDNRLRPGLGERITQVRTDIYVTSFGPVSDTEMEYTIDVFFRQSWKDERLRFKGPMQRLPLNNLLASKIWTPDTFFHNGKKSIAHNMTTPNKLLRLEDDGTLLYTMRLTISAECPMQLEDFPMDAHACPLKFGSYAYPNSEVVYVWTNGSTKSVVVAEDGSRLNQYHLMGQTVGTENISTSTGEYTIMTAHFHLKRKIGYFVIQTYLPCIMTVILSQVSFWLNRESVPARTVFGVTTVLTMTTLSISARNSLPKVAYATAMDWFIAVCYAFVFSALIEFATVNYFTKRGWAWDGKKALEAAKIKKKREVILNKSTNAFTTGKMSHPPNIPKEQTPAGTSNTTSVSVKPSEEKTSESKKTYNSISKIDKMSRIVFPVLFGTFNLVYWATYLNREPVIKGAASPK
α5 subunit-containing GABAA receptors, sequence (P18507 40-475): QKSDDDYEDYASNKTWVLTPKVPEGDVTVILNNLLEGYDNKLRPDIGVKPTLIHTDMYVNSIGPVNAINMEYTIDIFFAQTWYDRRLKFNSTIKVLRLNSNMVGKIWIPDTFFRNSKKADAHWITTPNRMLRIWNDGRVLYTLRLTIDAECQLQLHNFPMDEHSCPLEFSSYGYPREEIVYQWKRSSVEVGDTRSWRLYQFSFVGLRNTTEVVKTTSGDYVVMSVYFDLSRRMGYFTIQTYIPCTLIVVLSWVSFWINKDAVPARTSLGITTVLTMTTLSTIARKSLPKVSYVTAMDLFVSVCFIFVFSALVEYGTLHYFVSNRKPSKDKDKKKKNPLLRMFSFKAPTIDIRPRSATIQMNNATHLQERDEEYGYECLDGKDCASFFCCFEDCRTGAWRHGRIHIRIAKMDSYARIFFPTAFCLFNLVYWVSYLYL
α5 subunit-containing GABAA receptors, sequence (P28472 26-473 partner): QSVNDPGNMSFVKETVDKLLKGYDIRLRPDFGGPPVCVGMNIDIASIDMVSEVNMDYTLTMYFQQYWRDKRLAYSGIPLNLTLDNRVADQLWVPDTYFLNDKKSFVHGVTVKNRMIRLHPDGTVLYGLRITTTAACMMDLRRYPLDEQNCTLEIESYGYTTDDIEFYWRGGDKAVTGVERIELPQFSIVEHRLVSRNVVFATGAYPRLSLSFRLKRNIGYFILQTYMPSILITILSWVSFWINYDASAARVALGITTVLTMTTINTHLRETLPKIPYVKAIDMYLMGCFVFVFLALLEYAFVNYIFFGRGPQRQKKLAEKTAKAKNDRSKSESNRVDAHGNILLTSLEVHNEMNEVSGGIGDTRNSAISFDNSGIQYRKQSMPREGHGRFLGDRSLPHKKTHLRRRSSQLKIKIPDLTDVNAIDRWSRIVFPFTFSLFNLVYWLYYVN

Sprague-Dawley rats = test: Precipitated withdrawal/acute dependence: responding 60 min after diazepam bolus; type: in vivo, rat; details: ligand 3.0 mg/kg; FIG. 12B; N=5
Experimental: Acute dependence can occur after single exposures to the benzodiazepine chlordiazepoxide, but not to an α2/3GABAA selective ligand (Fischer et al. 2013, Psychopharmacology 227: 347-54). Here, the extent to which TPA023B can precipitate withdrawal in rats following a single, large bolus dose of diazepam was studied. […] Once rates of responding were stable, doses of diazepam, the non-selective benzodiazepine antagonist flumazenil, and TPA023B were administered prior to the session.

[3] = design: key to Pharmacokinetics: “poor” - low bioavailability and/or short half-life; “good” - potent with long half-life; details: in vivo; cited from earlier work
[4] = molecular target: α1 subunit-containing GABAA receptors (Homo sapiens, UniProt P14867+P18507); design: key to Subtype α1: act as partial positive modulators for particular subtype combinations; none: zero efficacy (i.e., antagonism) at other subtypes; details: cited from earlier work
α1 subunit-containing GABAA receptors, sequence (P14867 28-456): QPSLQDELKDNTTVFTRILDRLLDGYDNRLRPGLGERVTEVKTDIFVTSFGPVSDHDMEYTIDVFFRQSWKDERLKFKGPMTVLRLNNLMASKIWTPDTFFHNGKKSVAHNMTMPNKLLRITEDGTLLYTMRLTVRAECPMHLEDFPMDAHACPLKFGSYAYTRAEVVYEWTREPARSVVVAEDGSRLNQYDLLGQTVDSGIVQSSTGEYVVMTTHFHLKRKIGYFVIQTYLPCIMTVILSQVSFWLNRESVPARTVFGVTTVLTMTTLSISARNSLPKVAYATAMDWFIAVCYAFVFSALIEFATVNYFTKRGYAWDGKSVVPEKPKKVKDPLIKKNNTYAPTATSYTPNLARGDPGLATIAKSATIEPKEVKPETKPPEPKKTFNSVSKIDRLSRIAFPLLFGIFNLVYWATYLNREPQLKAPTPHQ
α1 subunit-containing GABAA receptors, sequence (P18507 40-475): as the sequence (P18507 40-475) above
α1 subunit-containing GABAA receptors, sequence (P28472 26-473 partner): as the sequence (P28472 26-473 partner) above

[5] = molecular target: α2 subunit-containing GABAA receptors (Homo sapiens, UniProt P18507+P47869); design: key: act as partial positive modulators for particular subtype combinations; none: zero efficacy (i.e., antagonism) at other subtypes; details: cited from earlier work
α2 subunit-containing GABAA receptors, sequence (P47869 29-451): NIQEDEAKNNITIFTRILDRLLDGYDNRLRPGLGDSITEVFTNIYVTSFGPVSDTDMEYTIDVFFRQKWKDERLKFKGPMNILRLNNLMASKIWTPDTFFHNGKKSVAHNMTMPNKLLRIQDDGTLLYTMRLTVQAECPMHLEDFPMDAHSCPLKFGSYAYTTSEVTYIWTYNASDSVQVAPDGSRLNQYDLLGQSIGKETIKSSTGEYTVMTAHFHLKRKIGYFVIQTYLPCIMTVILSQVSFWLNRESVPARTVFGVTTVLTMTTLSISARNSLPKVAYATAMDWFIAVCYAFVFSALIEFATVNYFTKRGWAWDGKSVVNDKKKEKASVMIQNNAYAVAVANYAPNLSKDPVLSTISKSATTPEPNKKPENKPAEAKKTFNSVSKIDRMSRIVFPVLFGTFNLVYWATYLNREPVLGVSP
α2 subunit-containing GABAA receptors, sequence (P18507 40-475): as the sequence (P18507 40-475) above
α2 subunit-containing GABAA receptors, sequence (P28472 26-473 partner): as the sequence (P28472 26-473 partner) above

GABAA receptor subtypes = details: cited from earlier work
[6] = rhesus monkey, cited from earlier work
rats = test: Blockade of diazepam suppression of responding (30 min pretreatment); type: in vivo, rat; details: ligand 3.0 mg/kg; diazepam 30 min pretreatment; FIG. 12A; N=5
Experimental: This profile is very similar to that of TPA023B despite the structural differences. […] For both compounds, we chose 3.0 mg/kg, i.p., in rats based on published literature or pilot studies in our laboratories.
FIGS. 12A and 12B illustrate the results of acute dependency testing using these compounds.

[7] = tested on: patients with Generalized Anxiety Disorder; details: cited from earlier work
rhesus monkeys [8] = test: i.v. self-administration under progressive-ratio (PR) schedule; type: in vivo, rhesus monkey; details: dose at which self-administration was highest; n=4 monkeys; FIG. 5
Excerpt: The abuse potential of novel compounds can be determined by use of i.v. self-administration procedures, in which a compound is available to a subject previously trained to press a lever to obtain a known drug of abuse. Our standard procedure is to use a progressive-ratio (PR) schedule, in which an increasing number of responses are required to obtain an injection. The last response requirement completed is referred to as a “break point” (BP) and represents the maximum amount of “work” a subject will perform to obtain the drug or compound.
In the present example, eight rhesus monkeys (4 females, 4 males) were trained to respond under a schedule of i.v. midazolam (a conventional benzodiazepine) injection at 0.03 mg/kg/injection. Once self-administration had been acquired (>20 injections/daily 2-hour sessions), monkeys were trained under the PR schedule as described by Shinday et al. (2013). Daily experimental sessions consisted of five components, each made up of four trials (i.e., 20 trials total). […]
In order to directly compare lorazepam and TPA023B self-administration, we here analyzed BP values at the doses that maintained the highest level of mean injections/session and compared these BP values with those obtained after vehicle tests.

rhesus monkeys [9] = details: visual recognition memory and spatial working memory; cited from earlier work

α3 subunit-containing GABAA receptors, sequence (P34903 29-492): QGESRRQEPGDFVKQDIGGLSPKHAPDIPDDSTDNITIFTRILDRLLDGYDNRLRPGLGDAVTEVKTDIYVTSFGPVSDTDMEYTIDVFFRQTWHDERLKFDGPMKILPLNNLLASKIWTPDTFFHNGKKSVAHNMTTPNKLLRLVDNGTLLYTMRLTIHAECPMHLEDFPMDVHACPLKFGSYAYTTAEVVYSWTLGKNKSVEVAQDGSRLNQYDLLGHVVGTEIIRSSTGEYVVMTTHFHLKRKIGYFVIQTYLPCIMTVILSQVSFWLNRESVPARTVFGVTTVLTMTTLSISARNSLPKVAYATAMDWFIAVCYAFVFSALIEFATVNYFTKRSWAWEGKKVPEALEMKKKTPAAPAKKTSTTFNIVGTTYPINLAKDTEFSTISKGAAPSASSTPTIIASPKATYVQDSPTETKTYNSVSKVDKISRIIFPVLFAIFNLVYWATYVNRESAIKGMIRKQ
α3 subunit-containing GABAA receptors, sequence (P18507 40-475): as the sequence (P18507 40-475) above
α3 subunit-containing GABAA receptors, sequence (P28472 26-473 partner): as the sequence (P28472 26-473 partner) above

## CC(C)(O)c1ccn2c(-c3ccc(F)c(-c4cccnc4)c3)cnc2n1 [MRK-623]
[1]
  Subtype α3: partial
[2]
  Subtype α5: none
Sprague-Dawley rats
  rates of responding after 60-min pretreatment of diazepam (acute dependence): neither L-838,417 nor MRK-623 altered rates of responding
[3]
  Pharmacokinetics: poor
[4]
  Subtype α1: none
[5]
  Subtype α2: partial
GABAA receptor subtypes
  functional/subtype selectivity: α2/3GABAA subtype selective
[6]; in vivo
  bioavailability (in words): fair
[6]
  half-life: 30 min
rats
  ability of diazepam to suppress rates of responding: blocked

## CCn1ncnc1COc1nn2c(-c3ccccc3F)nnc2cc1C(C)(C)C [TPA023]
[1]
  Subtype α3: partial
[2]
  Subtype α5: none
[3]
  Pharmacokinetics: good
[4]
  Subtype α1: none
  efficacy at α1GABAA subtype: no efficacy
[5]
  Subtype α2: partial
[7]; human, in vivo
  adverse effects leading to halt in Phase II: cataract development
[7]; post hoc analyses, three clinical trials
  anxiolysis in patients with Generalized Anxiety Disorder: significant anxiolysis

## O=C1Nc2ccc(Cl)cc2C(c2ccccc2Cl)=NC1O (centres unmarked) [lorazepam, reference compound]
Rhesus monkeys [8]
  median break point (BP), highest response requirement: 320

## Cc1nnc2n1-c1ccc(Cl)cc1C(c1ccccc1Cl)=NC2 [triazolam, reference compound]
Rhesus monkeys [9]
  accuracy in DMTS and SOSS tasks: significantly reduced accuracy
